Values joined by “and” are separate entries in the source; they are usually repeats but may differ in a detail not shown here. Equal values may be shown once.
Test system: gastric pH
Experiment: Clinical trial: 24 h gastric pH monitoring after single night-time oral dose
Format: in vivo, human (healthy male volunteers)
Conditions: for % inhibition of IA / % inhibition of Time pH < 4: post-dose vs baseline; for % inhibition of IA / % inhibition of Time pH < 4 / IA (integrated acidity) / Median pH / Time pH > 4 (%) / Time pH > 6 (%): mean N=12; for IA (integrated acidity) / Median pH / Time pH > 4 (%) / Time pH > 6 (%): post-dose
Description: In order to evaluate the nocturnal acid breakthrough inhibiting effect of the compound of Chemical Formula 1 according to the present disclosure, clinical trials were designed by Randomized, Open-label, Single-dose, Balanced incomplete block crossover. A total of 24 trial subjects were enrolled for 12 sequences, with two trial subjects assigned per a sequence. All the trial subjects have completed the planned clinical trial schedule (FIG. 1 and Table 1).
Trial drugs were administered between P.M. 08:30 and P.M 10:30 together with 200 mL of water in a state where water intake was restricted 1 hour before the administration of the trial drugs. Investigator has instructed the trial subjects to take the trial drugs, and has observed the oral cavities of the trial subjects whether all the trial drugs were well taken. The trial subjects were restricted not to lie down for 3 hours after the administration of the trial drugs, but were not restricted when they must lie down or be semi-reclined during a clinical test procedure (for example, electrocardiogram examination). The trial subjects were to take a proper posture if any abnormal reaction occurs at any point.
The trial subjects were allowed to take a small amount of water (150 mL or less) in order to insert a pH sensor easily. The intake of drinking water and food was prohibited for 4 hours after the insertion of a pH sensor, and, particularly, the intake of water was restricted for 4 hours after the administration of the trial drugs (On the day before the administration (−1 D), for 4 hours after estimated drug administration time). After the trial subjects woke up next day, a small amount of water (about 50 mL) was provided to the trial subjects at 2 hour intervals during 12 to 24 hours after the administration of the trial drugs (On the day before the administration (−1 D), during 12 to 24 hours after estimated drug administration time), and the intake of water was not restricted during meal time. Meanwhile, standard meal was provided in the form of liquid meal or semi-liquid, and dinner was finished at least 3 hours before drug administration time (On the day before the administration (−1 D), estimated drug administration time). After dinner, an empty stomach state was maintained until breakfast next morning.
Specifically, for the analysis of […] parameters, the changes of average 15-min median gastric pH over time were monitored. The main […] parameters set forth above were calculated using the data of total 24 persons obtained by the monitoring of gastric pH. The time function of […] parameters was schematically was illustrated to calculate the […] parameters, and these […] parameters were summarized using descriptive statistics (arithmetic mean (mean), standard deviation (SD), coefficient of variation (CV (%)), sample size (N), minimum value (min), maximum value (max), and median value (median)).
Meanwhile, the monitoring of gastric pH was carried out as fellows. • Period 1: for each examination period, 24 h for −1 D (before administration), 24 h for each of 1 D and 7 D (after administration) • Period 2: 24 h for 1 D (after administration)

[1] = Compound I 50 mg (Example 1), 24 hours
[2] = Compound I 50 mg (Example 1), day-time (12-24 hours)
[3] = Compound I 50 mg (Example 1), night-time (0-12 hours)
[4] = Compound I 100 mg (Example 2), 24 hours
[5] = Compound I 100 mg (Example 2), day-time (12-24 hours)
[6] = Compound I 100 mg (Example 2), night-time (0-12 hours)
[7] = Compound I 200 mg (two formulations of Example 2), 24 hours
[8] = Compound I 200 mg (two formulations of Example 2), day-time (12-24 hours)
[9] = Compound I 200 mg (two formulations of Example 2), night-time (0-12 hours)
[10] = dexlansoprazole 60 mg (Comparative Example), 24 hours
[11] = dexlansoprazole 60 mg (Comparative Example), day-time (12-24 hours)
[12] = dexlansoprazole 60 mg (Comparative Example), night-time (0-12 hours)

What does the source list for Cc1nc2c(OC3CCOc4cc(F)cc(F)c43)cc(C(=O)N(C)C)cc2[nH]1 (centres unmarked) [Compound I, 4-(5,7-difluorochroman-4-yloxy)-N,N,2-trimethyl-1H-benzo[d]imidazole-6-carboxamide]?
% inhibition of IA [1]: 78.18%; % inhibition of Time pH < 4 [1]: 51.35%; % inhibition of IA [2]: 62.64%; % inhibition of Time pH < 4 [2]: 39.65%; % inhibition of IA [3]: 83.98%; % inhibition of Time pH < 4 [3]: 61.41%; IA (integrated acidity) [1]: 355.02 mmol·h/L; Median pH [1]: 4.57; Time pH > 4 (%) [1]: 58.55%; Time pH > 6 (%) [1]: 25.97%; IA (integrated acidity) [2]: 184.29 mmol·h/L; Median pH [2]: 4.08; Time pH > 4 (%) [2]: 52.06%; Time pH > 6 (%) [2]: 21.56%; IA (integrated acidity) [3]: 170.73 mmol·h/L; Median pH [3]: 4.98; Time pH > 4 (%) [3]: 65.11%; Time pH > 6 (%) [3]: 30.41%; % inhibition of IA [4]: 88.78%; % inhibition of Time pH < 4 [4]: 66.22%; % inhibition of IA [5]: 90.74%; % inhibition of Time pH < 4 [5]: 71.47%; % inhibition of IA [6]: 88.68%; % inhibition of Time pH < 4 [6]: 62.53%; IA (integrated acidity) [4]: 229.60 mmol·h/L; Median pH [4]: 5.10; Time pH > 4 (%) [4]: 70.07%; Time pH > 6 (%) [4]: 31.91%; IA (integrated acidity) [5]: 67.72 mmol·h/L; Median pH [5]: 5.10; Time pH > 4 (%) [5]: 74.57%; Time pH > 6 (%) [5]: 30.10%; IA (integrated acidity) [6]: 161.88 mmol·h/L; Median pH [6]: 5.01; Time pH > 4 (%) [6]: 65.61%; Time pH > 6 (%) [6]: 33.85%; % inhibition of IA [7]: 93.45%; % inhibition of Time pH < 4 [7]: 78.87%; % inhibition of IA [8]: 97.41%; % inhibition of Time pH < 4 [8]: 82.48%; % inhibition of IA [9]: 91.17%; % inhibition of Time pH < 4 [9]: 76.00%; IA (integrated acidity) [7]: 141.62 mmol·h/L; Median pH [7]: 5.90; Time pH > 4 (%) [7]: 81.73%; Time pH > 6 (%) [7]: 48.44%; IA (integrated acidity) [8]: 25.51 mmol·h/L; Median pH [8]: 5.62; Time pH > 4 (%) [8]: 85.34%; Time pH > 6 (%) [8]: 43.29%; IA (integrated acidity) [9]: 116.11 mmol·h/L; Median pH [9]: 6.00; Time pH > 4 (%) [9]: 78.15%; Time pH > 6 (%) [9]: 53.63%; Time pH > 4 (%) (Compound I 200 mg (two formulations of Example 2), night-time (0-12 hours), listed as compound of Chemical Formula 1): 73.15%; time after administration until average gastric pH reached 4 or higher (all dose groups (50 mg, 100 mg, and 200 mg), administered at night-time): ≤ 2 hours

Cc1c(OCC(F)(F)F)ccnc1C[S@@+]([O-])c1nc2ccccc2[nH]1 [dexlansoprazole, reference compound] was tested. Which “% inhibition of IA” value [10] did it give?
Its value is 64.66%.

What about the “% inhibition of Time pH < 4” value [10] of the same molecule?
Its value is 53.96%.

And the “% inhibition of IA” value [11]?
The value was 97.01%.

And the “% inhibition of Time pH < 4” value [11]?
The value was 79.80%.

And the “% inhibition of IA” value [12]?
Its value is 44.06%.

What about the “% inhibition of Time pH < 4” value [12] of the same molecule?
The value was 29.98%.

What about the “IA (integrated acidity)” value [10] of the same molecule?
The value was 719.54 mmol·h/L.

And the “Median pH” value [10]?
Its value is 4.98.

What about the “Time pH > 4 (%)” value [10] of the same molecule?
The value was 60.55%.

And the “Time pH > 6 (%)” value [10]?
Its value is 25.85%.

What about the “IA (integrated acidity)” value [11] of the same molecule?
The value was 22.89 mmol·h/L.

What about the “Median pH” value [11] of the same molecule?
Its value is 5.56.

And the “Time pH > 4 (%)” value [11]?
Its value is 83.05% and 83.06%.

And the “Time pH > 6 (%)” value [11]?
The value was 33.71%.

And the “IA (integrated acidity)” value [12]?
Its value is 696.55 mmol·h/L.

And the “Median pH” value [12]?
The value was 2.55.

And the “Time pH > 4 (%)” value [12]?
The value was 37.78%.

And the “Time pH > 6 (%)” value [12]?
The value was 17.76%.

Reference: patent publication US10512635B2, “Uses of benzimidazole derivative for nocturnal acid breakthrough” (CJ HEALTHCARE CORPORATION, priority 2015, dated 2019)
